From US10738041B2, “Ferroportin inhibitors” (Vifor (International) AG, priority 2015, dated 2020)

Key:
human Fpn = target: T1, human Fpn (Homo sapiens, UniProt Q9NP59); assay: Biophysical Ferroportin-Hepcidin Binding Assay (fluorescence polarization); settings: average of multiple measurements; 1 μM human Fpn, 20 nM TMR-hepcidin; read-out: FP IC50
T1 construct: FLAG (C); made in house; host or cells: Pichia pastoris
T1 sequence (Q9NP59 1-571): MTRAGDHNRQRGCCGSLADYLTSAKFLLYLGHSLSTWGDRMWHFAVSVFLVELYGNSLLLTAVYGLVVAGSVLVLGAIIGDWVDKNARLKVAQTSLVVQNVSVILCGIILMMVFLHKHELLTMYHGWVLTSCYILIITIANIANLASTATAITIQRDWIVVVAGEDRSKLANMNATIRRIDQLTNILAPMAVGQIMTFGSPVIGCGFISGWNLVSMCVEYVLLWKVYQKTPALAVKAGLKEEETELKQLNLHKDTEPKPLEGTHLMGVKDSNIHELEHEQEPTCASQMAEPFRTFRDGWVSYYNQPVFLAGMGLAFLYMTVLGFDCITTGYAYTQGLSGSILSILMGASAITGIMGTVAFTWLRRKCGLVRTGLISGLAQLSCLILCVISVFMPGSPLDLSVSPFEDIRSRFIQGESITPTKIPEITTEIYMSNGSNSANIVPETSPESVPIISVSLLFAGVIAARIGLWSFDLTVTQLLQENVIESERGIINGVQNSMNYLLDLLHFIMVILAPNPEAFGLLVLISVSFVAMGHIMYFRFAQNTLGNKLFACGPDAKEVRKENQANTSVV
Experimental: This biophysical assay was developed to confirm inhibition of hepcidin binding to ferroportin (Fpn) more directly. Incubation of TMR-hepcidin with purified human Fpn isolated from Pichia pastoris yeast cells expressing human Fpn with a C-terminal FLAG affinity tag (Bonaccorsi di Patti, 2014) leads to increased fluorescence polarization (FP) of the TMR-hepcidin ligand. Small molecular weight Fpn inhibitors were tested for inhibition of binding of TMR-hepcidin to Fpn, as detected by dose-dependent decrease of the TMR FP signal, as described in detail below.
8 μl of serial dilutions of test compounds were added in duplicates to reach final Fpn and TMR-hepcidin concentrations of 1 μM and 20 nM, respectively. Plates were incubated for 90 minutes at room temperature and parallel (S) and perpendicular (P) fluorescence was measured in a Synergy H1 fluorescence reader (BioTek). FP values were calculated in mP according to the following formula.

human Fpn-GFP fusion = target: T2, human Fpn-GFP fusion (Homo sapiens, UniProt Q9NP59); assay: Inhibition of ferroportin mediated iron export activity in an iron response assay (BLAzer); assay type: cell-based; settings: average of multiple measurements; HEK-293 cell line #354; read-out: BLAzer EC50
T2 construct: expressed in transfected cells; host or cells: HEK-293 cell line #354 (derivative of HEK-293 Tet-ON Advanced, Clontech)
T2 sequence (Q9NP59 1-571): T1 sequence (Q9NP59 1-571)
Text: Intracellular iron levels are indirectly measured in this assay by monitoring the activity of a beta-lactamase (BLA) reporter gene fused to the human ferritin promoter and the associated iron regulatory element (IRE) contained within the 5′ untranslated region of the ferritin mRNA. Expression of ferroportin (Fpn) in such a cell line leads to iron efflux and lower iron levels as reflected by lower activity of the reporter gene. On the other hand, inhibition of Fpn-mediated iron efflux results in elevated cellular iron levels which is detected as increased reporter gene activity. Small molecular weight Fpn inhibitor compounds were tested for dose-dependent effects in this in vitro iron response assay as described below.
The HEK-293 cell line #354 was generated by stable integration of (i) a human Fpn-GFP fusion construct inserted in a derivative of the doxycycline-inducible pTRE-Tight-BI plasmid (Clontech, Cat. 631068) and (ii) a human ferritin promoter-BLA reporter gene into a derivative of the HEK-293 Tet-ON Advanced cell line (Clontech). […] After overnight incubation, 10 μl/well of dilution series of the test compounds were added in quadruplicates and plates were further incubated overnight at 37° C. with 5% CQ. Cells were washed 3 times with HBSS leaving 25 μl per well. BLA activity was detected by adding 5 μl/well of the GeneBlazer reagent CCF4-AM (Invitrogen, Cat. K1085) to the cells. After incubation of the plates in the dark at 18° C. for 60 min., blue and green fluorescence signals were measured in a Safre2 fluorescence plate reader (Tecan) with excitation at 410 nm and emissions at 458 nm (blue) and 522 nm (green). The ratio of blue/green fluorescence as a measure for BLA activity was calculated and EC50 values were determined with the calculated blue/green fluorescence ratios as described for the hepcidin internalization assay.

ferroportin (Fpn) = target: T3, ferroportin (Fpn) (Mus musculus, UniProt Q9JHI9); assay: Hepcidin Internalization Assay (J774); assay type: cell-based; settings: average of multiple measurements; inhibition of TMR-hepcidin (25 nM) internalization into J774 cells; read-out: J774 IC50
T3 construct: host or cells: J774 mouse macrophage cell line, Fe(III)-NTA induced
T3 sequence (Q9JHI9 1-570): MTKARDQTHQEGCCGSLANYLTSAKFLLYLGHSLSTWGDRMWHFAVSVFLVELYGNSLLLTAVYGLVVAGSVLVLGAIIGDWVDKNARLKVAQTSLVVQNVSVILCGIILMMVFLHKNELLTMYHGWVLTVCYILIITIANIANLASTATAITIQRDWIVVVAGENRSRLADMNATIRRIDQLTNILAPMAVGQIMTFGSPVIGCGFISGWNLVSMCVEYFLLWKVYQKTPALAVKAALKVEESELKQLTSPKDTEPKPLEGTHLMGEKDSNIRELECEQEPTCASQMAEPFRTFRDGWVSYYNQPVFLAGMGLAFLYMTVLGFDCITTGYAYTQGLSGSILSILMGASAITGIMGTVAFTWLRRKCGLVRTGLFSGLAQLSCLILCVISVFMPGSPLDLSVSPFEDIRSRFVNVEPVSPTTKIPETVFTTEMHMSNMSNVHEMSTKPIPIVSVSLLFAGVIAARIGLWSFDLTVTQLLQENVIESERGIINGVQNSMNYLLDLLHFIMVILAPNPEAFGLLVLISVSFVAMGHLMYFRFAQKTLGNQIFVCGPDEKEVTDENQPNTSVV
In short: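 Inhibition of fluorescent TMR-hepcidin uptake via ferroportin was imaged in fixed J774 cells after a 2 h, 37 °C co-incubation with compound dilutions; cells were pre-cultured overnight with 200 μM Fe(III)NTA. Internalized TMR signal per cell (Sum(Mean)) was fitted as log(inhibitor) vs. response for IC50, in triplicate.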

Structure (SMILES)	IC50 (human Fpn)	EC50 (human Fpn-GFP fusion)	IC50 (ferroportin (Fpn))
Cc1cc(C)c(CNC(=O)c2csc(CCNCc3nc4ccccc4[nH]3)n2)cn1 [Example 105]	0.42 µM	2.63 µM	0.077 µM
O=C(CNC(=O)C1CN(CCc2nc3ccccc3[nH]2)C1)NCc1ncccc1F [compound 201]	0.79 µM	39.4 µM	1.93 µM
O=C(NCc1ncccc1F)c1cncc(CCNCc2nc3ccccc3[nH]2)c1 [compound 221]	0.147 µM	16.9 µM	0.36 µM
O=C(NCc1ccccc1)c1cccc(CCNCc2nc3ccccc3[nH]2)c1 [Example 67]	3.4 µM	33.5 µM	0.53 µM
O=C(NCc1ncc(F)cc1Cl)c1csc(CCNCc2nc3ccccc3[nH]2)n1 [Example 102]	0.258 µM	1.85 µM	0.058 µM
Cn1cncc1CNC(=O)c1csc(CCNCc2nc3ccccc3[nH]2)n1 [Example 84]	2.41 µM	13.2 µM	0.4 µM
CN1CCN(c2ccccc2CNC(=O)c2csc(CCNCc3nc4ccccc4[nH]3)n2)CC1 [Example 68]	4.06 µM	10.4 µM	2.5 µM
Cc1cnc(CNC(=O)c2csc(CCNCc3nc4ccccc4[nH]3)n2)c(C)c1 [Example 57]	0.43 µM	2.11 µM	0.1 µM
O=C(NCc1cccnn1)c1csc(CCNCc2nc3ccccc3[nH]2)n1 [Example 87]	2.25 µM	16.6 µM	0.19 µM
O=C(NCc1ccccc1F)c1csc(CCNCc2nc3ccccc3[nH]2)n1 [Example 65]	0.95 µM	32.3 µM	0.85 µM
Cc1ccc(CNC(=O)c2csc(CCNCc3nc4ccccc4[nH]3)n2)nn1 [Example 93]	1.03 µM	20.6 µM	0.53 µM
O=C(NCc1ncccc1F)c1cncc(CCNCCc2nc3c(F)cccc3[nH]2)c1 [compound 246]	0.263 µM	12.9 µM	0.276 µM
O=C(NCc1ccncn1)c1csc(CCNCc2nc3ccccc3[nH]2)n1 [Example 44]	5.34 µM	18.3 µM	1.33 µM
Cn1nccc1CNC(=O)c1csc(CCNCc2nc3ccccc3[nH]2)n1 [Example 88]	6.76 µM	13.1 µM	0.78 µM
O=C(NCCCCNCc1nc2ccccc2[nH]1)NCc1ncccc1F [compound 197]	0.55 µM	18.1 µM	0.61 µM
O=C(CCNCCc1nc2ccccc2[nH]1)NCC(=O)NCc1ncccc1F [compound 190]	0.66 µM	27.3 µM	0.74 µM
Cc1cccc(CNC(=O)c2csc(CCNCc3nc4ccccc4[nH]3)n2)n1 [Example 42]	2.17 µM	36.3 µM	0.6 µM
Cc1c(CNC(=O)c2csc(CCNCc3nc4ccccc4[nH]3)n2)cnn1C [Example 100]	1.42 µM	6.56 µM	0.46 µM

Structure (SMILES)	IC50 (human Fpn)	EC50 (human Fpn-GFP fusion)	IC50 (ferroportin (Fpn))
Cc1ccc2[nH]c(CNCCc3nc(C(=O)NCc4ccccc4)cs3)nc2c1 [Example 32]	1.21 µM	1.87 µM	2.6 µM
O=C(NCc1cnccn1)c1csc(CCNCc2nc3ccccc3[nH]2)n1 [Example 46]	4.34 µM	38.7 µM	0.59 µM
O=C(NCc1ccccc1S(=O)(=O)N1CCOCC1)c1csc(CCNCc2nc3ccccc3[nH]2)n1 [Example 75]	1.83 µM	6 µM	0.53 µM
O=C(NCc1ccccc1)c1csc(CCNCCc2nc3ccccc3[nH]2)n1 [Example 29]	0.136 µM	2.53 µM	0.51 µM
O=C(NC1CCCc2cccnc21)c1csc(CCNCc2nc3ccccc3[nH]2)n1 (stereo not drawn) [Example 38]	0.233 µM	2.98 µM	0.03 µM
O=C(NCc1ccccc1)c1csc(CCNCc2nc3cc(C(F)(F)F)ccc3[nH]2)n1 [Example 51]	0.53 µM	4.47 µM	0.36 µM
O=C(c1csc(CCNCc2nc3ccccc3[nH]2)n1)N1CCc2ccccc2C1 [Example 15]	1.47 µM	2.22 µM	1.6 µM
O=C(NCc1ccncc1F)c1csc(CCNCc2nc3ccccc3[nH]2)n1 [Example 89]	0.922 µM	5.05 µM	0.089 µM
O=C(NCc1ncc(C(F)(F)F)cc1Cl)c1csc(CCNCc2nc3ccccc3[nH]2)n1 [Example 101]	0.315 µM	2.92 µM	0.28 µM
N#Cc1ccc(CNC(=O)c2csc(CCNCc3nc4ccccc4[nH]3)n2)cn1 [Example 56]	0.566 µM	10.4 µM	0.41 µM
O=C(NCc1ncccc1C(F)(F)F)c1csc(CCNCc2nc3ccccc3[nH]2)n1 [Example 37]	1.9 µM	7.92 µM	0.81 µM
O=C(NCc1ccccc1)c1csc(CCNCc2nc3cc(Cl)ccc3[nH]2)n1 [Example 52]	1.36 µM	2.08 µM	0.34 µM
O=C(c1csc(CCNCc2nc3ccccc3[nH]2)n1)N1CCc2ncccc2C1 [Example 107]	5.74 µM	21 µM	1.32 µM
Cn1ccnc1CNCCc1nc(C(=O)NCc2ccccc2)cs1 [Example 2]	10.6 µM	1.64 µM	6.3 µM
Cc1ccc(F)c(CNC(=O)c2csc(CCNCc3nc4ccccc4[nH]3)n2)n1 [Example 79]	0.82 µM	0.84 µM	0.037 µM
O=C(NCc1ncccc1F)c1cncc(CCNCCc2nc3ccccc3[nH]2)c1 [compound 229]	0.043 µM	4.06 µM	–
O=C(NCc1ccccc1)c1csc(CCNCc2cc3ccccc3[nH]2)n1 [Example 24]	–	12.8 µM	2.8 µM
N#Cc1ccc2[nH]c(CCNCCc3nc(C(=O)NCc4ncccc4F)co3)nc2c1 [Example 265]	–	2 µM	0.07 µM
